This is an account of results in patent publication US12692249B2, “WDR5 inhibitors and modulators” (Vanderbilt University, priority 2019, dated 2026).

The test deals with MV4:11 human cancer cell lines. Description: Cellular viability / anti-proliferative assay, CellTiter-Glo, 5 day protocol. The format is cell-based. As to conditions: Homo sapiens, MV4-11, 120 h, MV4:11 cells; 5 day incubation; CellTiter-Glo; mean of at least two replicates; read-out: GI50 on cellular proliferation of MV4:11 human cancer cell lines. The protocol:
Cellular Viability of Human Tumor Cell Lines
Anti-proliferative activity using MLL-harboring cell lines. MV-4-11 and K562 cells are grown in IMDM media supplemented with 10% FBS and 1% penicillin/streptomycin, Molm-13 cells are cultured in RPMI-1640 media supplemented with 10% FBS and 1% penicillin/streptomycin. Viability assays are performed by dispensing 200 cells at 7200 cells/mL into each well of an opaque 384-well plate and adding compounds at the indicated concentrations in a final volume, of 32 μL. and a final concentration of DMSO of 0.3% for all samples. A certain range of compound concentrations is made through a series of 2-fold dilutions starting 30 μM at the highest, total 22 dilutions. After a set incubation period, 5 day protocol, the viability of cells in each well is assessed using the CellTiter-Glo assay (Promega), read on a 96 Microplane Luminometer (Cytation 3, BioTek). Serial dilutions of each cell type are performed in all assays to generate standard curves and the final densities of cells are determined within the dynamic range of the instrument. GI50 values are calculated based on XLfit software (IDBS, Guildford, UK) with Sigmoidal Dose-Response Model. Each compound is tested in minimum of two replicates. Data are expressed as mean.
A general note: Cellular ATP, detected with luciferase, serves as a proxy for viable cell number.
For `COc1ccc2nc(C)cc(N3CCc4c(cc(Cn5ccnc5)cc4-c4cn(C)nc4C(F)(F)F)C3=O)c2c1` [Example 14, 7-((1H-Imidazol-1-yl)methyl)-2-(6-methoxy-2-methylquinolin-4-yl)-5-(1-methyl-3-(trifluoromethyl)-1H-pyrazol-4-yl)-3,4-dihydroisoquinolin-1(2H)-one], the GI50 amounted to 44 nM.

On to `COc1cc(N2CCN(C(C)=O)CC2)c2nccc(N3CCc4c(cc(Cn5ccnc5)cc4-c4cn(C)nc4C(F)(F)F)C3=O)c2c1` [Example 32, 7-((1H-imidazol-1-yl)methyl)-2-(8-(4-acetylpiperazin-1-yl)-6-methoxyquinolin-4-yl)-5-(1-methyl-3-(trifluoromethyl)-1H-pyrazol-4-yl)-3,4-dihydroisoquinolin-1(2H)-one], for which the GI50 is under 20 nM.

For the compound `COc1cc(N2CCN(C)C(=O)C2)c2nccc(N3CCc4c(cc(Cn5ccnc5)cc4-c4cn(C)nc4C(F)(F)F)C3=O)c2c1` [Example 33, 7-((1H-Imidazol-1-yl)methyl)-2-(6-methoxy-8-(4-methyl-3-oxopiperazin-1-yl)quinolin-4-yl)-5-(1-methyl-3-(trifluoromethyl)-1H-pyrazol-4-yl)-3,4-dihydroisoquinolin-1(2H)-one], the GI50 is under 20 nM.

Take `CCc1cc(Br)c2nccc(N3CCc4c(cc(Cn5ccnc5)cc4-c4cn(C)nc4C(F)(F)F)C3=O)c2c1` [Example 34, 7-((1H-imidazol-1-yl)methyl)-2-(8-bromo-6-ethylquinolin-4-yl)-5-(1-methyl-3-(trifluoromethyl)-1H-pyrazol-4-yl)-3,4-dihydroisoquinolin-1(2H)-one]: the GI50 was under 20 nM.

In the case of `COc1cc(C(=O)O)c2nccc(N3CCc4c(cc(Cn5ccnc5)cc4-c4cn(C)nc4C(F)(F)F)C3=O)c2c1` [Example 40, 4-(7-((1H-Imidazol-1-yl)methyl)-5-(1-methyl-3-(trifluoromethyl)-1H-pyrazol-4-yl)-1-oxo-3,4-dihydroisoquinolin-2(1H)-yl)-6-methoxyquinoline-8-carboxylic acid], the GI50 stood at 291 nM.

As to `COc1cc(C(N)=O)c2nccc(N3CCc4c(cc(Cn5ccnc5)cc4-c4cn(C)nc4C(F)(F)F)C3=O)c2c1` [Example 41, 4-(7-((1H-Imidazol-1-yl)methyl)-5-(1-methyl-3-(trifluoromethyl)-1H-pyrazol-4-yl)-1-oxo-3,4-dihydroisoquinolin-2(1H)-yl)-6-methoxyquinoline-8-carboxamide], the GI50 was 24 nM.

For the compound `COc1cc(C(=O)N2CCN(C)CC2)c2nccc(N3CCc4c(cc(Cn5ccnc5)cc4-c4cn(C)nc4C(F)(F)F)C3=O)c2c1` [Example 43, 7-((1H-Imidazol-1-yl)methyl)-2-(6-methoxy-8-(4-methylpiperazine-1-carbonyl)quinolin-4-yl)-5-(1-methyl-3-(trifluoromethyl)-1H-pyrazol-4-yl)-3,4-dihydroisoquinolin-1(2H)-one], the GI50 was determined as 563 nM.

On to `COc1cc(C(=O)N(C)C)c2nccc(N3CCc4c(cc(Cn5ccnc5)cc4-c4cn(C)nc4C(F)(F)F)C3=O)c2c1` [Example 45, 4-(7-((1H-Imidazol-1-yl)methyl)-5-(1-methyl-3-(trifluoromethyl)-1H-pyrazol-4-yl)-1-oxo-3,4-dihydroisoquinolin-2(1H)-yl)-6-methoxy-N,N-dimethylquinoline-8-carboxamide], for which the GI50 was 326 nM.

On to `COc1cc(C(=O)N2CCOCC2)c2nccc(N3CCc4c(cc(Cn5ccnc5)cc4-c4cn(C)nc4C(F)(F)F)C3=O)c2c1` [Example 46, 7-((1H-Imidazol-1-yl)methyl)-2-(6-methoxy-8-(morpholine-4-carbonyl)quinolin-4-yl)-5-(1-methyl-3-(trifluoromethyl)-1H-pyrazol-4-yl)-3,4-dihydroisoquinolin-1(2H)-one], for which the GI50 came to 444 nM.

As for `COc1cc(C(=O)NC(C)C)c2nccc(N3CCc4c(cc(Cn5ccnc5)cc4-c4cn(C)nc4C(F)(F)F)C3=O)c2c1` [Example 47, 4-(7-((1H-Imidazol-1-yl)methyl)-5-(1-methyl-3-(trifluoromethyl)-1H-pyrazol-4-yl)-1-oxo-3,4-dihydroisoquinolin-2(1H)-yl)-N-isopropyl-6-methoxyquinoline-8-carboxamide], the GI50 was determined as 54 nM.

Regarding `CCCCNC(=O)c1cc(OC)cc2c(N3CCc4c(cc(Cn5ccnc5)cc4-c4cn(C)nc4C(F)(F)F)C3=O)ccnc12` [Example 48, 4-(7-((1H-Imidazol-1-yl)methyl)-5-(1-methyl-3-(trifluoromethyl)-1H-pyrazol-4-yl)-1-oxo-3,4-dihydroisoquinolin-2(1H)-yl)-N-butyl-6-methoxyquinoline-8-carboxamide], the GI50 was determined as 119 nM.

In the case of `CCOC(=O)c1cc(CC)cc2c(N3CCc4c(cc(Cn5ccnc5)cc4-c4cn(C)nc4C(F)(F)F)C3=O)ccnc12` [Example 91, Ethyl 4-(7-((1H-imidazol-1-yl)methyl)-5-(1-methyl-3-(trifluoromethyl)-1H-pyrazol-4-yl)-1-oxo-3,4-dihydroisoquinolin-2(1H)-yl)-6-ethylquinoline-8-carboxylate], the GI50 is under 20 nM.

Consider `CCc1cc(C(=O)O)c2nccc(N3CCc4c(cc(Cn5ccnc5)cc4-c4cn(C)nc4C(F)(F)F)C3=O)c2c1` [Example 92, 4-(7-((1H-imidazol-1-yl)methyl)-5-(1-methyl-3-(trifluoromethyl)-1H-pyrazol-4-yl)-1-oxo-3,4-dihydroisoquinolin-2(1H)-yl)-6-ethylquinoline-8-carboxylic acid], for which the GI50 was found to be 388 nM.

As to `CCc1cc(-c2cccn2C)c2nccc(N3CCc4c(cc(Cn5ccnc5)cc4-c4cn(C)nc4C(F)(F)F)C3=O)c2c1` [Example 97, 7-((1H-Imidazol-1-yl)methyl)-2-(6-ethyl-8-(1-methyl-1H-pyrrol-2-yl)quinolin-4-yl)-5-(1-methyl-3-(trifluoromethyl)-1H-pyrazol-4-yl)-3,4-dihydroisoquinolin-1(2H)-one], the GI50 is 83 nM.

Consider `Cc1cc(N2CCN(C)CC2)c2cncc(N3CCc4c(cc(Cn5ccnc5)cc4-c4cn(C)nc4C(F)(F)F)C3=O)c2c1` [Example 100, 7-((1H-Imidazol-1-yl)methyl)-6′-methyl-5-(1-methyl-3-(trifluoromethyl)-1H-pyrazol-4-yl)-8′-(4-methylpiperazin-1-yl)-3,4-dihydro-1H-[2,4′-biisoquinolin]-1-one], for which the GI50 was under 20 nM.

With `COc1cc(N2CCN(C)CC2)c2nc(C)cc(N3CCc4c(cc(Cn5ccnc5)cc4-c4cn(C)nc4C(F)(F)F)C3=O)c2c1` [Example 102, 7-((1H-Imidazol-1-yl)methyl)-2-(6-methoxy-2-methyl-8-(4-methylpiperazin-1-yl)quinolin-4-yl)-5-(1-methyl-3-(trifluoromethyl)-1H-pyrazol-4-yl)-3,4-dihydroisoquinolin-1(2H)-one], the GI50 is under 20 nM.

Turning to `COc1cc(N2CCN(C)C(=O)C2)c2nc(C)cc(N3CCc4c(cc(Cn5ccnc5)cc4-c4cn(C)nc4C(F)(F)F)C3=O)c2c1` [Example 105, 7-((1H-Imidazol-1-yl)methyl)-2-(6-methoxy-2-methyl-8-(4-methyl-3-oxopiperazin-1-yl)quinolin-4-yl)-5-(1-methyl-3-(trifluoromethyl)-1H-pyrazol-4-yl)-3,4-dihydroisoquinolin-1(2H)-one], the GI50 was under 20 nM.

Take `CCc1cc(N2CCN(C)C(=O)C2)c2nc(C)cc(N3CCc4c(cc(Cn5ccnc5)cc4-c4cn(C)nc4C(F)(F)F)C3=O)c2c1` [Example 111, 7-((1H-Imidazol-1-yl)methyl)-2-(6-ethyl-2-methyl-8-(4-methyl-3-oxopiperazin-1-yl)quinolin-4-yl)-5-(1-methyl-3-(trifluoromethyl)-1H-pyrazol-4-yl)-3,4-dihydroisoquinolin-1(2H)-one]: the GI50 is under 20 nM.

On to `CCc1cc(N2CCN(C(C)C)CC2)c2nc(C)cc(N3CCc4c(cc(Cn5ccnc5)cc4-c4cn(C)nc4C(F)(F)F)C3=O)c2c1` [Example 137, 7-((1H-Imidazol-1-yl)methyl)-2-(6-ethyl-8-(4-isopropylpiperazin-1-yl)-2-methylquinolin-4-yl)-5-(1-methyl-3-(trifluoromethyl)-1H-pyrazol-4-yl)-3,4-dihydroisoquinolin-1(2H)-one], for which the GI50 is under 20 nM.

`CCc1cc(N2CCOCC2)c2nc(C)cc(N3CCc4c(cc(Cn5ccnc5)cc4-c4cn(C)nc4C(F)(F)F)C3=O)c2c1` [Example 145, 7-((1H-Imidazol-1-yl)methyl)-2-(6-ethyl-2-methyl-8-morpholinoquinolin-4-yl)-5-(1-methyl-3-(trifluoromethyl)-1H-pyrazol-4-yl)-3,4-dihydroisoquinolin-1(2H)-one]: the GI50 worked out at 36 nM.

Turning to `COc1cc(N2CCOCC2)c2nc(C)cc(N3CCc4c(cc(Cn5ccnc5)cc4-c4cn(C)nc4C(F)(F)F)C3=O)c2c1` [Example 146, 7-((1H-Imidazol-1-yl)methyl)-2-(6-methoxy-2-methyl-8-morpholinoquinolin-4-yl)-5-(1-methyl-3-(trifluoromethyl)-1H-pyrazol-4-yl)-3,4-dihydroisoquinolin-1(2H)-one], the GI50 is 26 nM.

As to `CCc1cc(C2=CCN(C)CC2)c2nc(C)cc(N3CCc4c(cc(Cn5ccnc5)cc4-c4cn(C)nc4C(F)(F)F)C3=O)c2c1` [Example 147, 7-((1H-imidazol-1-yl)methyl)-2-(6-ethyl-2-methyl-8-(1-methyl-1,2,3,6-tetrahydropyridin-4-yl)quinolin-4-yl)-5-(1-methyl-3-(trifluoromethyl)-1H-pyrazol-4-yl)-3,4-dihydroisoquinolin-1(2H)-one], the GI50 was 43 nM.
